Experimental data reported in patent US11874603B2, “Photoresist composition comprising amide compound and pattern formation methods using the same” (Rohm And Haas Electronic Materials Korea Ltd., priority 2021, dated 2024).

test: lipophilicity (log P) of the quencher; type: physicochemical; settings: organic (oil) phase / aqueous phase partition
From the text: Lipophilicity, most commonly referred to as the Log P, represents the ratio at equilibrium of the concentration of a compound between two phases, an oil and a […] phase. The Log P value is a constant defined in the following manner: Log P=log 10 (Partition Coefficient) Partition Coefficient, P=[organic]/[aqueous] where the square bracket parenthesis “[ ]” indicates the concentration of solute in the organic and aqueous partition.

logP | Compound
10.8 | CCCCCCCCN(CCCCCCCC)CCCCCCCC [Quencher-A]
5.6 | CCCCCCCCCCCC(=O)N(CC)CC [Quencher-H]
10.2 | CCCCCCCCN(CCCCCCCC)C(=O)CCCCCCC [Quencher-B]
6.69 | CCCCCCCCN(CCCCCCCC)C(C)=O [Quencher-I]
